Experimental data taken from patent US5935998A, “Use of all allylamine derivatives such as terbinafine, in the manufacture of a medicament for the treatment of helicobacter pylori infection or associated diseases” (Novartis AG, priority 1995, dated 1999).
Values after ≈ are worked out from the molar mass of the structure shown. Read-outs that look alike come from different tables or passages of the source.

Assays:
[1] = in vivo; details: mouse, acute
[2] = test system: Helicobacter pylori; test: MIC (minimum inhibitory concentration) determination using various clinical isolates of H.pylori; type: cell-based; details: Mueller-Hinton agar with 7% defibrinated horse blood, pH 7.2, 72 hours, 37° C., 5% CO2
Procedure: The activity of the compounds of formula I against Helicobacter pylori can be verified e.g. by determination of the MIC (minimum inhibitory concentration) in the following test method using various clinical isolates of H.pylori: Clinical isolates of H.pylori are stored at -70° C. in Brucella broth with 20% glycerol. All isolates are subcultured on fresh blood agar Blood agar base No. 2, Unipath, with 5% defibrinated horse blood) and confirmed as Helicobacter pylori by Gram shin, catalase, oxidase and rapid-urease tests. Initial incubation is carried out microaerobically in a variable-atmosphere incubator (6% O2, 10% CO2, 3% H2, 81% N2) at 37° C. Subcultures and MIC tests are carried out in humidified air with 5% CO2 at 37° C. Test compounds are incorporated into Mueller-Hinton agar (Unipath) with 7% defibrinated horse blood at pH 7.2. After growth for 72 hours on blood agar H.pylori suspensions are made in Brucella broth (Unipath) equivalent to McFarland standard No. 3. This represents 10^8 cfu/ml H.pylori. A multipoint inoculator will deliver 1 μl per spot (approximately 10^5 cfu). The type strain NCTC 11637 is used as a control in each run. […] All tests are carried out in triplicate.

MIC [2] [µg/mL] | Compound | LD50 ([1]; ip, i.p., read-out: LD50 i.p.) [mg/kg] | LD50 ([1]; po, p.o., read-out: LD50 p.o.) [mg/kg]
– | CN(C/C=C/C#CC(C)(C)C)Cc1cccc2ccccc12 | 790 | > 1000
0.06 to 4 (≈ 0.183 to 12.2 µM) | C(=C\c1ccccc1)/CN1CCCC[C@@H]1c1cccc2ccccc12 [N-[(E)-3-phenyl-2-propenyl-2-piperidinyl] | – | –
